From PubChem BioAssay AID1919005 (Molecular Pharmacology Branch, DTP, NCI, 2023)
“And” between values parts separate entries of the source, which are not always exact repeats. Equal entries are not always repeated. Values belong to the compound of their own block, whether it stands above or below them.

System: 855422-203-R-J1-PDC complex spheroid growth
Experiment: Anticancer human tumor 855422-203-R-J1-PDC patient-derived bladder carcinoma cell line growth inhibition [AhR]
Conditions: for viability, T/C: stronger effect = lower value
Summary of the method: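 Agents were dosed in half-log steps down from roughly clinical Cmax, or from 10 microM where Cmax was unknown, alone and with AhR antagonists. Read-out: percent test/control growth of tumor spheroids containing HUVEC and MSC stromal cells.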

[1] = curve of first compound, second compound 0.1 µM
[2] = curve of first compound, second compound 0.316 µM
[3] = curve of first compound, second compound 1 µM
[4] = curve of first compound, second compound 3.16 µM
[5] = curve of first compound, second compound 10 µM
[6] = second compound 0.1 µM, first compound 0.0316 µM
[7] = second compound 0.1 µM, first compound 0.1 µM
[8] = second compound 0.1 µM, first compound 0.316 µM
[9] = second compound 0.1 µM, first compound 1 µM
[10] = second compound 0.1 µM, first compound 3.16 µM
[11] = second compound 0.1 µM, first compound 10 µM
[12] = second compound 0.316 µM, first compound 0.0316 µM
[13] = second compound 0.316 µM, first compound 0.1 µM
[14] = second compound 0.316 µM, first compound 0.316 µM
[15] = second compound 0.316 µM, first compound 1 µM
[16] = second compound 0.316 µM, first compound 3.16 µM
[17] = second compound 0.316 µM, first compound 10 µM
[18] = second compound 1 µM, first compound 0.0316 µM
[19] = second compound 1 µM, first compound 0.1 µM
[20] = second compound 1 µM, first compound 0.316 µM
[21] = second compound 1 µM, first compound 1 µM
[22] = second compound 1 µM, first compound 3.16 µM
[23] = second compound 1 µM, first compound 10 µM
[24] = second compound 3.16 µM, first compound 0.0316 µM
[25] = second compound 3.16 µM, first compound 0.1 µM
[26] = second compound 3.16 µM, first compound 0.316 µM
[27] = second compound 3.16 µM, first compound 1 µM
[28] = second compound 3.16 µM, first compound 3.16 µM
[29] = second compound 3.16 µM, first compound 10 µM
[30] = second compound 10 µM, first compound 0.0316 µM
[31] = second compound 10 µM, first compound 0.1 µM
[32] = second compound 10 µM, first compound 0.316 µM
[33] = second compound 10 µM, first compound 1 µM
[34] = second compound 10 µM, first compound 3.16 µM
[35] = second compound 10 µM, first compound 10 µM
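Further: spheroids exposed to agents for seven days before readout.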
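Wherever viability, T/C is given: percent of DMSO vehicle control luminescence viability.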

SMILES: O=C(c1cc(Cc2n[nH]c(=O)c3ccccc23)ccc1F)N1CCN(C(=O)C2CC2)CC1 + Cc1cncc(-c2nc(NCCc3c[nH]c4ccccc34)c3ncn(C(C)C)c3n2)c1
- IC50 [1]: > 10000 nM
- IC50 [2]: > 10000 nM
- IC50 [3]: > 10000 nM
- IC50 [4]: > 10000 nM
- IC50 [5]: < 31.6 nM
- viability, T/C [6]: 106%
- viability, T/C [7]: 102%
- viability, T/C [8]: 99.6%
- viability, T/C [9]: 103%
- viability, T/C [10]: 108%
- viability, T/C [11]: 90.9%
- viability, T/C [12]: 102%
- viability, T/C [13]: 109%
- viability, T/C [14]: 101%
- viability, T/C [15]: 93.7%
- viability, T/C [16]: 101%
- viability, T/C [17]: 86.7%
- viability, T/C [18]: 98.2%
- viability, T/C [19]: 93%
- viability, T/C [20]: 103%
- viability, T/C [21]: 87.9%
- viability, T/C [22]: 94.7%
- viability, T/C [23]: 89.5%
- viability, T/C [24]: 78.6%
- viability, T/C [25]: 83.6%
- viability, T/C [26]: 75.9%
- viability, T/C [27]: 71.2%
- viability, T/C [28]: 89.8%
- viability, T/C [29]: 78.6%
- viability, T/C [30]: 16.8%
- viability, T/C [31]: 12.5%
- viability, T/C [32]: 7.7%
- viability, T/C [33]: 3.22%
- viability, T/C [34]: 6.34%
- viability, T/C [35]: 5.85%

SMILES: O=C(c1cc(Cc2n[nH]c(=O)c3ccccc23)ccc1F)N1CCN(C(=O)C2CC2)CC1
- viability, T/C (compound 0.0316 µM): 99% and 105% and 111%
- viability, T/C (compound 0.1 µM): 112% and 105% and 129%
- viability, T/C (compound 0.316 µM): 111% and 99% and 105%
- viability, T/C (compound 1 µM): 105% and 98.5% and 116%
- viability, T/C (compound 3.16 µM): 114% and 103% and 106%
- viability, T/C (compound 10 µM): 87.1% and 93.6% and 102%
- IC50 (curve of compound): > 10000 nM

SMILES: O=C(C=Cn1cnc(-c2cc(C(F)(F)F)cc(C(F)(F)F)c2)n1)NNc1cnccn1
- viability, T/C (compound 0.00949 µM): 110% and 118% and 112%
- viability, T/C (compound 0.03 µM): 105% and 125% and 130%
- viability, T/C (compound 0.0949 µM): 164% and 169% and 162%
- viability, T/C (compound 0.3 µM): 41.3% and 95.5% and 51.4%
- viability, T/C (compound 0.949 µM): 29.9% and 55.1% and 35%
- viability, T/C (compound 3 µM): 20.7% and 42.1% and 27.6%
- IC50 (curve of compound): 267 nM and 917 nM and 327 nM

The next lines start with results.

- IC50 [1]: < 31.6 nM
- IC50 [2]: < 31.6 nM
- IC50 [3]: < 31.6 nM
- IC50 [4]: < 31.6 nM
- IC50 [5]: < 31.6 nM
SMILES: COc1cccc2c1C(=O)c1c(O)c3c(c(O)c1C2=O)CC(O)(C(=O)CO)CC3OC1CC(N)C(O)C(C)O1 (centres undefined) + Cc1ccccc1N=Nc1ccc(NC(=O)c2ccnn2C)c(C)c1
- viability, T/C [6]: 47%
- viability, T/C [7]: 32.6%
- viability, T/C [8]: 7.99%
- viability, T/C [9]: 2.76%
- viability, T/C [10]: 2.93%
- viability, T/C [11]: 5.62%
- viability, T/C [12]: 32%
- viability, T/C [13]: 24.1%
- viability, T/C [14]: 6.58%
- viability, T/C [15]: 2.77%
- viability, T/C [16]: 2.16%
- viability, T/C [17]: 3.66%
- viability, T/C [18]: 45.6%
- viability, T/C [19]: 25.8%
- viability, T/C [20]: 6.31%
- viability, T/C [21]: 2.89%
- viability, T/C [22]: 2.5%
- viability, T/C [23]: 4.52%
- viability, T/C [24]: 39.9%
- viability, T/C [25]: 26.4%
- viability, T/C [26]: 4.8%
- viability, T/C [27]: 3.4%
- viability, T/C [28]: 1.63%
- viability, T/C [29]: 3.98%
- viability, T/C [30]: 39.6%
- viability, T/C [31]: 29.7%
- viability, T/C [32]: 6.61%
- viability, T/C [33]: 2.6%
- viability, T/C [34]: 2.02%
- viability, T/C [35]: 3.27%

- IC50 [1]: > 10000 nM
- IC50 [2]: > 10000 nM
- IC50 [3]: > 10000 nM
- IC50 [4]: > 10000 nM
- IC50 [5]: > 10000 nM
SMILES: CC(C)c1c(-c2ccccc2)nc2c(C#N)c[nH]n2c1=O + CC(CO)NC(=O)c1cc(-c2ccc(Cl)cc2)nn(-c2cnn(C)c2)c1=O
- viability, T/C [6]: 103%
- viability, T/C [7]: 100%
- viability, T/C [8]: 95.2%
- viability, T/C [9]: 85.6%
- viability, T/C [10]: 92.4%
- viability, T/C [11]: 91.8%
- viability, T/C [12]: 93.1%
- viability, T/C [13]: 105%
- viability, T/C [14]: 95.8%
- viability, T/C [15]: 105%
- viability, T/C [16]: 98.8%
- viability, T/C [17]: 92%
- viability, T/C [18]: 103%
- viability, T/C [19]: 106%
- viability, T/C [20]: 104%
- viability, T/C [21]: 99.8%
- viability, T/C [22]: 99.6%
- viability, T/C [23]: 96.5%
- viability, T/C [24]: 97.3%
- viability, T/C [25]: 106%
- viability, T/C [26]: 99.2%
- viability, T/C [27]: 93.6%
- viability, T/C [28]: 91.3%
- viability, T/C [29]: 110%
- viability, T/C [30]: 86.9%
- viability, T/C [31]: 90.9%
- viability, T/C [32]: 91.7%
- viability, T/C [33]: 98%
- viability, T/C [34]: 93%
- viability, T/C [35]: 92.1%

- IC50 [1]: 18.1 nM
- IC50 [2]: 15.5 nM
- IC50 [3]: 11.5 nM
- IC50 [4]: 7.01 nM
- IC50 [5]: 5.43 nM
SMILES: CCc1c2c(nc3ccc(O)cc13)-c1cc3c(c(=O)n1C2)COC(=O)[C@]3(O)CC + Cc1ccccc1N=Nc1ccc(NC(=O)c2ccnn2C)c(C)c1
- viability, T/C (second compound 0.1 µM, first compound 0.000949 µM): 107%
- viability, T/C (second compound 0.1 µM, first compound 0.003 µM): 98.3%
- viability, T/C (second compound 0.1 µM, first compound 0.00949 µM): 75.5%
- viability, T/C (second compound 0.1 µM, first compound 0.03 µM): 29.6%
- viability, T/C (second compound 0.1 µM, first compound 0.0949 µM): 17.4%
- viability, T/C (second compound 0.1 µM, first compound 0.3 µM): 11.5%
- viability, T/C (second compound 0.316 µM, first compound 0.000949 µM): 98.3%
- viability, T/C (second compound 0.316 µM, first compound 0.003 µM): 93.7%
- viability, T/C (second compound 0.316 µM, first compound 0.00949 µM): 68.1%
- viability, T/C (second compound 0.316 µM, first compound 0.03 µM): 25.2%
- viability, T/C (second compound 0.316 µM, first compound 0.0949 µM): 14.6%
- viability, T/C (second compound 0.316 µM, first compound 0.3 µM): 9.09%
- viability, T/C (second compound 1 µM, first compound 0.000949 µM): 102%
- viability, T/C (second compound 1 µM, first compound 0.003 µM): 95.3%
- viability, T/C (second compound 1 µM, first compound 0.00949 µM): 55.5%
- viability, T/C (second compound 1 µM, first compound 0.03 µM): 20.7%
- viability, T/C (second compound 1 µM, first compound 0.0949 µM): 14%
- viability, T/C (second compound 1 µM, first compound 0.3 µM): 9.24%
- viability, T/C (second compound 3.16 µM, first compound 0.000949 µM): 92.3%
- viability, T/C (second compound 3.16 µM, first compound 0.003 µM): 81.8%
- viability, T/C (second compound 3.16 µM, first compound 0.00949 µM): 36.8%
- viability, T/C (second compound 3.16 µM, first compound 0.03 µM): 21.7%
- viability, T/C (second compound 3.16 µM, first compound 0.0949 µM): 13%
- viability, T/C (second compound 3.16 µM, first compound 0.3 µM): 7.68%
- viability, T/C (second compound 10 µM, first compound 0.000949 µM): 76.5%
- viability, T/C (second compound 10 µM, first compound 0.003 µM): 73.4%
- viability, T/C (second compound 10 µM, first compound 0.00949 µM): 28.1%
- viability, T/C (second compound 10 µM, first compound 0.03 µM): 22%
- viability, T/C (second compound 10 µM, first compound 0.0949 µM): 13.7%
- viability, T/C (second compound 10 µM, first compound 0.3 µM): 9.18%
